Reference: PMC4515083, “Selective Targeting of the TPX2 Site of Importin-α Using Fragment-Based Ligand Design” (Chemmedchem, 2015)

What follows are molecules tested against T1, ΔIBB-importin-α (importin-α1, KPNA2) (Mus musculus, UniProt P52293) (assay: direct ITC).
T1 construct: modified pET-30a with TEV-cleavable His6/S-tag, tag cleaved; recombinant
Type: binding
From the text: direct ITC on ΔIBB-importin-α (importin-α1, KPNA2)

| Kd [mM] | SMILES |
| --- | --- |
| > 10 | NCCCC[C@H](NC(=O)c1ccc(-c2cccnc2)cc1)C(N)=O [compound 14] |
| 0.9 ± 0.1 | NCCCC[C@H](NCc1ccc(-c2cccnc2)s1)C(N)=O [compound 17] |

Continued, molecule first:

| SMILES | Kd [mM] |
| --- | --- |
| NCCCC[C@H](NCc1ccc(-c2cccnc2)cc1)C(N)=O [compound 11] | 4 ± 0.5 |
| NCCCC[C@@H](NCc1ccc(-c2cccnc2)cc1)C(N)=O [compound 15] | 3.8 ± 0.4 |
| NCCCC[C@H](NCc1cccc(-c2cccnc2)c1)C(N)=O [compound 16] | 1.3 ± 0.1 |
